For the assay, the target named is human APJ receptor (Homo sapiens (Human), UniProt P35414). The assay is described as follows: biochemical. The following applies: read-out: Activity hAPJ SPA EC50 IP. It is filed as biochemical. A digest of the protocol:
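Membranes from CHO cells stably expressing cloned human APJ were incubated with WGA SPA beads in 20 mM HEPES pH 7.5, 5 mM MgCl2, 0.1% BSA, 200 mM NaCl and 3 μM GDP. Reaction started with 0.2 nM [35S]GTPγS ± ligands, 90 min at RT. EC50 obtained by non-linear regression as mean of independent experiments.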

Molecules are shown by their SMILES.

Sequence of human APJ receptor (P35414 whole entry): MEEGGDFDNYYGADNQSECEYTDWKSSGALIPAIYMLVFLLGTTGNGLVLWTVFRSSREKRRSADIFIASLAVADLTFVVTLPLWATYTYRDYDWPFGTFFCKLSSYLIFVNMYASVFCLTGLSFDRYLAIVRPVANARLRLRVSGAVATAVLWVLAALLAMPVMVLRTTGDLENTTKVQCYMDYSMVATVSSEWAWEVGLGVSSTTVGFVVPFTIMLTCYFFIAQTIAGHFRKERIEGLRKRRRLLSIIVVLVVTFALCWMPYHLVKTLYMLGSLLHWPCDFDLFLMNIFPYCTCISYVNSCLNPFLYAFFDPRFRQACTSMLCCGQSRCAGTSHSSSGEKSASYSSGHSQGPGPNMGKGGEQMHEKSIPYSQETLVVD

Broadly, the EC50 is the concentration at which the effect is half-maximal. In the case of `COc1cccc(-c2nnc(NS(=O)(=O)[C@@H](C)[C@H](OC)c3ncc(C)cn3)n2-c2cccc(C#N)c2)n1` [Example 56.0, (1R,2S)-N-(4-(3-cyanophenyl)-5-(6-methoxy-2-pyridinyl)-4H-1,2,4-triazol-3-yl)-1-methoxy-1-(5-methyl-2-pyrimidinyl)-2-propanesulfonamide], the concentration giving a half-maximal response (EC50) was 31 nM.

With `COc1cnc([C@@H](OC)[C@H](C)S(=O)(=O)Nc2nnc(-c3cncc(C)c3)n2-c2c(OC)cccc2OC)nc1` [Example 57.0, (1R,2S)-N-(4-(2,6-dimethoxyphenyl)-5-(5-methyl-3-pyridinyl)-4H-1,2,4-triazol-3-yl)-1-methoxy-1-(5-methoxy-2-pyrimidinyl)-2-propanesulfonamide], the concentration for a half-maximal effect (EC50) stood at 0.55 nM.

Regarding `COc1cnc([C@@H](OC)[C@H](C)S(=O)(=O)Nc2nnc(-c3cccnc3)n2-c2c(OC)cccc2OC)nc1` [Example 58.0, (1R,2S)-N-(4-(2,6-dimethoxyphenyl)-5-(3-pyridinyl)-4H-1,2,4-triazol-3-yl)-1-methoxy-1-(5-methoxy-2-pyrimidinyl)-2-propanesulfonamide], the EC50 stood at 0.5 nM.

Take `COc1cnc([C@@H](OC)[C@H](C)S(=O)(=O)Nc2nnc(-c3cncc(C)c3)n2-c2ccccc2)nc1` [Example 59.0, (1R,2S)-1-methoxy-1-(5-methoxy-2-pyrimidinyl)-N-(5-(5-methyl-3-pyridinyl)-4-phenyl-4H-1,2,4-triazol-3-yl)-2-propanesulfonamide]: the 50% effective concentration (EC50) was determined as 26 nM.

Regarding `COc1cccc(-c2nnc(NS(=O)(=O)[C@@H](C)[C@H](OC)c3ncc(C)cn3)n2-c2cccc(Br)c2)n1` [Example 60.0, (1R,2S)-N-(4-(3-bromophenyl)-5-(6-methoxy-2-pyridinyl)-4H-1,2,4-triazol-3-yl)-1-methoxy-1-(5-methyl-2-pyrimidinyl)-2-propanesulfonamide], the EC50 came out at 12 nM.

With `COc1cccc(-c2nnc(NS(=O)(=O)[C@@H](C)[C@H](OC)c3ncc(C)cn3)n2-c2cccc(C)c2)n1` [Example 62.0, (1R,2S)-1-methoxy-N-(5-(6-methoxy-2-pyridinyl)-4-(3-methylphenyl)-4H-1,2,4-triazol-3-yl)-1-(5-methyl-2-pyrimidinyl)-2-propanesulfonamide], the EC50 came out at 6 nM.

Turning to `COc1cccc(-c2nnc(NS(=O)(=O)[C@@H](C)[C@H](OC)c3ncc(C)cn3)n2-c2ccc(F)c(C(F)(F)F)c2)n1` [Example 63.0, (1R,2S)-N-(4-(4-fluoro-3-(trifluoromethyl)phenyl)-5-(6-methoxy-2-pyridinyl)-4H-1,2,4-triazol-3-yl)-1-methoxy-1-(5-methyl-2-pyrimidinyl)-2-propanesulfonamide], the 50% effective concentration (EC50) turned out to be 350 nM.

`COc1cccc(-n2c(NS(=O)(=O)[C@@H](C)[C@H](OC)c3ncc(C)cn3)nnc2-c2cccc(OC)n2)c1` [Example 64.0, (1R,2S)-1-methoxy-N-(4-(3-methoxyphenyl)-5-(6-methoxy-2-pyridinyl)-4H-1,2,4-triazol-3-yl)-1-(5-methyl-2-pyrimidinyl)-2-propanesulfonamide]: the EC50 was determined as 10 nM.

As to `COc1cccc(-c2nnc(NS(=O)(=O)[C@@H](C)[C@H](OC)c3ncc(C)cn3)n2-c2ccc(F)cc2)n1` [Example 65.0, (1R,2S)-N-(4-(4-fluorophenyl)-5-(6-methoxy-2-pyridinyl)-4H-1,2,4-triazol-3-yl)-1-methoxy-1-(5-methyl-2-pyrimidinyl)-2-propanesulfonamide], the concentration for a half-maximal effect (EC50) was determined as 180 nM.

With `COc1cccc(-c2nnc(NS(=O)(=O)[C@@H](C)[C@H](OC)c3ncc(C)cn3)n2-c2cccc(Cl)c2)n1` [Example 66.0, (1R,2S)-N-(4-(3-chlorophenyl)-5-(6-methoxy-2-pyridinyl)-4H-1,2,4-triazol-3-yl)-1-methoxy-1-(5-methyl-2-pyrimidinyl)-2-propanesulfonamide], the EC50 is 24 nM.

As for `COc1cccc(-c2nnc(NS(=O)(=O)[C@@H](C)[C@H](OC)c3ncc(C)cn3)n2-c2cc(Cl)cc(Cl)c2)n1` [Example 68.0, (1R,2S)-N-(4-(3,5-dichlorophenyl)-5-(6-methoxy-2-pyridinyl)-4H-1,2,4-triazol-3-yl)-1-methoxy-1-(5-methyl-2-pyrimidinyl)-2-propanesulfonamide], the EC50 was determined as 60 nM.

Take `COc1cccc(-c2nnc(NS(=O)(=O)[C@@H](C)[C@H](OC)c3ncc(C)cn3)n2-c2ccc(F)c(F)c2)n1` [Example 71.0, (1R,2S)-N-(4-(3,4-difluorophenyl)-5-(6-methoxy-2-pyridinyl)-4H-1,2,4-triazol-3-yl)-1-methoxy-1-(5-methyl-2-pyrimidinyl)-2-propanesulfonamide]: the concentration giving a half-maximal response (EC50) amounted to 210 nM.

On to `COc1cccc(-c2nnc(NS(=O)(=O)[C@@H](C)[C@H](OC)c3ncc(C)cn3)n2-c2cccc(C(C)=O)c2)n1` [Example 72.0, (1R,2S)-N-(4-(3-acetylphenyl)-5-(6-methoxy-2-pyridinyl)-4H-1,2,4-triazol-3-yl)-1-methoxy-1-(5-methyl-2-pyrimidinyl)-2-propanesulfonamide], for which the concentration for a half-maximal effect (EC50) was 9.1 nM.

Regarding `COc1cccc(-c2nnc(NS(=O)(=O)[C@@H](C)[C@H](OC)c3ncc(C)cn3)n2-c2c(Cl)cccc2Cl)n1` [Example 73.0, (1R,2S)-N-(4-(2,6-dichlorophenyl)-5-(6-methoxy-2-pyridinyl)-4H-1,2,4-triazol-3-yl)-1-methoxy-1-(5-methyl-2-pyrimidinyl)-2-propanesulfonamide], the EC50 was determined as 0.76 nM.

In the case of `COc1cccc(-c2nnc(NS(=O)(=O)[C@@H](C)[C@H](OC)c3ncc(C)cn3)n2-c2cccc(C(F)(F)F)c2)n1` [Example 75.0, (1R,2S)-1-methoxy-N-(5-(6-methoxy-2-pyridinyl)-4-(3-(trifluoromethyl)phenyl)-4H-1,2,4-triazol-3-yl)-1-(5-methyl-2-pyrimidinyl)-2-propanesulfonamide], the concentration for a half-maximal effect (EC50) was found to be 12 nM.

With `COc1cccc(-c2nnc(NS(=O)(=O)[C@@H](C)[C@H](OC)c3ncc(C)cn3)n2-c2ccc(N(C)C)cc2)n1` [Example 77.0, (1R,2S)-N-(4-(4-(dimethylamino)phenyl)-5-(6-methoxy-2-pyridinyl)-4H-1,2,4-triazol-3-yl)-1-methoxy-1-(5-methyl-2-pyrimidinyl)-2-propanesulfonamide], the EC50 was determined as 7 nM.

Consider `COc1cccc(-c2nnc(NS(=O)(=O)[C@@H](C)[C@H](C)c3ncc(F)cn3)n2-c2ccccc2)n1` [Example 78.0, (2S,3R)-3-(5-fluoro-2-pyrimidinyl)-N-(5-(6-methoxy-2-pyridinyl)-4-phenyl-4H-1,2,4-triazol-3-yl)-2-butanesulfonamide], for which the EC50 was 9.4 nM.

In the case of `CCO[C@H](c1ncc(F)cn1)[C@H](C)S(=O)(=O)Nc1nnc(-c2cncc(C)c2)n1-c1c(OC)cccc1OC` [Example 79.0, (1R,2S)-N-(4-(2,6-dimethoxyphenyl)-5-(5-methyl-3-pyridinyl)-4H-1,2,4-triazol-3-yl)-1-ethoxy-1-(5-fluoro-2-pyrimidinyl)-2-propanesulfonamide], the EC50 amounted to 0.41 nM.

For the compound `COc1cccc(OC)c1-n1c(NS(=O)(=O)[C@@H](C)[C@H](O)c2ncc(F)cn2)nnc1-c1cccnc1` [Example 82.0, (1R,2S)-N-(4-(2,6-dimethoxyphenyl)-5-(3-pyridinyl)-4H-1,2,4-triazol-3-yl)-1-(5-fluoro-2-pyrimidinyl)-1-hydroxy-2-propanesulfonamide], the EC50 turned out to be 2.8 nM.

Turning to `COc1cc(-c2nnc(NS(=O)(=O)[C@@H](C)[C@H](C)c3ncc(C)cn3)n2-c2c(OC)cccc2OC)ccn1` [Example 84.0, (2S,3R)-N-(4-(2,6-dimethoxyphenyl)-5-(2-methoxypyridin-4-yl)-4H-1,2,4-triazol-3-yl)-3-(5-methylpyrimidin-2-yl)butane-2-sulfonamide], the 50% effective concentration (EC50) came to 5.2 nM.

With `COc1cccc(OC)c1-n1c(NS(=O)(=O)[C@@H](C)[C@H](C)c2ncc(C)cn2)nnc1-c1ccnc(C)c1` [Example 85.0, (2S,3R)-N-(4-(2,6-dimethoxyphenyl)-5-(2-methylpyridin-4-yl)-4H-1,2,4-triazol-3-yl)-3-(5-methylpyrimidin-2-yl)butane-2-sulfonamide], the EC50 is 5.2 nM.

With `COc1cncc(-c2nnc(NS(=O)(=O)[C@@H](C)[C@H](C)c3ncc(C)cn3)n2-c2c(OC)cccc2OC)c1` [Example 86.0, (2S,3R)-N-(4-(2,6-dimethoxyphenyl)-5-(5-methoxypyridin-3-yl)-4H-1,2,4-triazol-3-yl)-3-(5-methylpyrimidin-2-yl)butane-2-sulfonamide], the EC50 worked out at 1.3 nM.

With `COc1cccc(OC)c1-n1c(NS(=O)(=O)[C@@H](C)[C@H](C)c2ncc(C)cn2)nnc1-c1cccc(C)n1` [Example 87.0, (2S,3R)-N-(4-(2,6-dimethoxyphenyl)-5-(6-methylpyridin-2-yl)-4H-1,2,4-triazol-3-yl)-3-(5-methylpyrimidin-2-yl)butane-2-sulfonamide], the 50% effective concentration (EC50) was 0.4 nM.

With `COc1cccc(OC)c1-n1c(NS(=O)(=O)[C@@H](C)[C@H](OC)c2ncc(Cl)cn2)nnc1-c1cccc(C)n1` [Example 88.0, (1R,2S)-1-(5-chloropyrimidin-2-yl)-N-(4-(2,6-dimethoxyphenyl)-5-(6-methylpyridin-2-yl)-4H-1,2,4-triazol-3-yl)-1-methoxypropane-2-sulfonamide], the concentration giving a half-maximal response (EC50) came to 0.37 nM.

Regarding `COc1cccc(OC)c1-n1c(NS(=O)(=O)[C@H](C)[C@@H](OC)c2ncc(Cl)cn2)nnc1-c1cccc(C)n1` [Example 89.0, (1S,2R)-1-(5-chloropyrimidin-2-yl)-N-(4-(2,6-dimethoxyphenyl)-5-(6-methylpyridin-2-yl)-4H-1,2,4-triazol-3-yl)-1-methoxypropane-2-sulfonamide], the EC50 stood at 11 nM.

For the compound `COc1ncnc(OC)c1-n1c(NS(=O)(=O)[C@@H](C)[C@H](OC)c2ncc(C)cn2)nnc1-c1cccc(C)n1` [Example 90.0, (1R,2S)-N-(4-(4,6-dimethoxypyrimidin-5-yl)-5-(6-methylpyridin-2-yl)-4H-1,2,4-triazol-3-yl)-1-methoxy-1-(5-methylpyrimidin-2-yl)propane-2-sulfonamide], the half-maximal effective concentration (EC50) stood at 2.4 nM.

The record behind these values is patent US10058550B2, “Methods of treating heart failure” (priority 2015, dated 2018).
